Results from patent publication US10472330B2, “Substituted triazenes protected from degradation by carboxylation of N1” (ARIZONA BOARD OF REGENTS ON BEHALF OF THE UNIVERSITY OF …, priority 2015, dated 2019).
Each block holds one compound with its values, some of them ahead of it.

Legend:
Type in all cases: physicochemical
[1] = Photo-induced degradation of triazabutadienes under hand-held UV lamp, followed by NMR; details: buffered borate solution, UV lamp, NMR integration
Method: (i) The reaction was monitored by comparing starting materials (A, C, D, and E) with product (B); (ii) Peak absorption and extinction coefficients for all of the compounds were excitable by the UV source used; (iii) Time-dependent conversion of compounds was measured by NMR integration.
Referring to FIG. 5A, in some embodiments, triazabutadiene molecules of the present invention may readily photoisomerize to a more reactive Z-form. As an example, an aqueous solution of Compound A was irradiated with a simple hand-held UV lamp (“365 nm,” measured at 350 nm). Consumption of Compound A was observed after only a few hours. […] Without wishing to limit the present invention to any theory or mechanism, it was hypothesized that if a two-electron process were happening, then Compound A-Z would be more basic than Compound A-E. A 1.0 N NaOH solution of Compound A was treated with light. […] Benzene diazonium ions also absorb UV light to expel nitrogen and generate a benzene radical. In order to resolve if the initial cleavage undergoes a radical homolytic mechanism versus a two-electron heterolytic mechanism, a trapping experiment using resorcinol was conducted. (Resorcinol was chosen because it can serve a dual role as a radical scavenger and a trap benzene diazonium species that could be formed.) An excess of resorcinol was added to a pH 9 borate-buffered solution of Compound A and the mixture was irradiated with light. The known azobenzene, Sudan Orange G, was formed in a 65% yield (versus 4% for the non-irradiated reaction). Derivatives of Compound A were made to examine the effects of electronic perturbations on the light-induced degradation. […] A buffered borate solution was chosen due to its alkaline nature and lack of complicating signals in the NMR experiment. Compounds C-E all have absorption spectra that are well within the range of the UV lamp (see FIG. 5A(ii)).

[2] = In situ real-time pH measurement upon UV irradiation; details: compared with Compound A
Method: In an effort to examine the rate order for the pH-increasing reaction more carefully, in situ, real-time pH measurements were acquired. Compound A was dissolved in water and the pH of the solution was adjusted to 9 such that it would not form Compound B in the absence of light. […] This spike was not at all consistent with the model of the pH increase being solely linked to the concentration of Compound B being generated.
A sample was irradiated and then the light was turned off once the pH of the solution started to increase noticeably. […] The experiment was repeated with increasing times of irradiation, and a saw-tooth pattern was obtained. The process was not completely reversible due to some degradation to Compound B. Indeed, triazabutadiene Compound A can serve a dual role of being a photo-masked base (see FIG. 4B(i)), and a base whose intrinsic functional group properties are altered photochemically (FIG. 4B(iii)).
Referring to FIG. 5A(iii), Compound C and Compound D were examined in an effort to find a base that was reversibly basic but also more resistant to degradation.

[3] = Hydrolysis (deprotection) rate of protected triazabutadienes; details: relative to ethyl carbamate 7, FIG. 8G
Method: The reaction is assumed to be second order with the addition of hydroxide to be the rate-determining step.
Without wishing to limit the present invention to any theory or mechanism, it is believed that this can be rationalized by a model whereby the carbonyl is stabilized by being more electron rich and thus less prone to nucleophilic attack.
The reaction is assumed to be second order with the addition of hydroxide to be the rate-determining step. […] Compound was in a concentration of 31 μM in 25 mM sodium borate buffer of pH 10 with scans every 60 seconds. […] Scans were obtained every 60 seconds.

[4] = Decomposition in D2O / buffers followed by NMR; details: for Compound consumed after 24 hours: D2O, in the dark
Method: For decomposition experiments, buffers were made to the appropriate pH in a 9:1 mix of H2O:D2O. These solutions were added to the compound being assayed such that the buffer capacity was at least 10 fold the concentration of the compound. Some experiments used 5 mg compound in 0.5 mL of buffer (e.g., pH 5 acetate buffer at 25 degrees C.). These were immediately inserted into an NMR instrument and scans were taken at even time intervals to calculate the half-life of the compound based on integration.
(§1) To render the triazabutadiene water-soluble, methyl imidazole was alkylated with propane sultone to provide the Zwitterionic NHC precursor Compound 5a (see FIG. 6E). […] Compound 6a was highly colored, so its pH dependence was studied using UV/vis. The reactions were not only pH-, but also scan-frequency dependent. Upon finding this, the stability of Compound 6a was studied in D2O in the dark using NMR. Even in the dark it was unstable, but not in the diazonium-forming way. Both Compound 6b and a more hindered mesityl (Mes) substituted Compound 6c (see FIG. 6E) were synthesized to stabilize what was initially considered to be a rearrangement pathway that could be blocked by steric repulsion. […] Dissolution in 0.1 N NaOH rendered all compounds stable (e.g., no detectable degradation after 24 hours in the dark).
As mentioned above, Compound 6c was reasonably stable in pure D2O. Upon adjusting the pH to 5 with HCl, a rapid initial consumption of Compound 6c to Compound 7 (see FIG. 6E) and a benzenediazonium salt was noted. After this initial burst of reactivity, a slowing and apparent arresting of the reaction was noted. At this pH the hydronium was the limiting reagent. All future reactions were run in buffers with a buffer capacity sufficient to maintain a large excess of hydronium ions. The experiments were performed in 90:10 H2O:D2O buffered solutions to minimize considerations of pH vs. pD. The decomposition to diazonium salts and Compound 7 was measured as a function of pH in phosphate/citrate buffers from pH 4-7 and in a phosphate buffer from pH 6-8. All runs provided linear correlations of concentration and time, indicating a pseudo-zero order reaction (first order with respect to hydronium ion with a large excess of hydronium ions). While the peaks for Compound 7 remained constant, the peaks associated with Compound 6c drifted downfield as the reaction progressed. This drifting was highly reproducible across samples and buffers, but the underlying cause is not understood at this time. A sigmoidal correlation between rate and buffer pH centered at pH 6 was obtained. When resorcinol was not added to consume the diazonium species, 4-phenylazophenol (Compound 8) was observed (see FIG. 6F). Compound 8 came from the decomposition of one diazonium ion to phenol followed by reaction with a second diazonium ion. The instability of Compound 6c in a pH 7 phosphate buffer was surprising given the stability in D2O. Compound 6c was tested in a non-buffered 90:10 H2O:D2O solution and observed only […] after 6 hours.
(§2) To further examine the reactivity of this class of compounds, variants Compound 6d and Compound 6e were synthesized (see FIG. 6G). It was hypothesized that the p-methoxy and p-nitro analogs (Compound 6d and Compound 6e, respectively) would display different reactivity profiles. […] After collecting the precipitate and dissolving it in deuterated methanol, no change was observed from a sample of Compound 6e that had never been exposed to a buffered solution. […] It is possible that: 1) that the sodium salt of Compound 6e is much less soluble than the potassium salt; or 2) with different solvating ions present the sulfonate interacts with the electron-poor N2 nitrogen atom of the triazabutadiene to break conjugation and form an insoluble complex (this is backed by a reversible color change of the starting rust-red solid, to the light yellow precipitate). […]

Solubility observations = test: Solubility observations
Method: It is possible that Compound A may be useful as a photo-catalytic base in the context of organic reactions. […] As noted previously, Compound A is quite stable to an excess of acetic acid in DMSO, showing only 12% degradation over 14 hours at room temperature. […] To confirm that this was due to the acid, a solution of Compound A (in pure DMSO) was irradiated. After four hours of constant irradiation in acid-free DMSO, an E:Z ratio of nearly 50:50 was observed.
(§3) As another non-limiting example, an azide (e.g., NHS-azide) to N-heterocyclic carbene (NHC) route may be used to synthesize triazabutadiene molecules (e.g., see FIG. 6C). For example, as shown in Compound 4 of FIG. 6D, a triazabutadiene molecule was synthesized from dimethyl imidazole derived NHC and phenyl azide. […] This change was confirmed to coincide with diazonium formation by trapping the reactive species with resorcinol to provide known diazo dye Sudan Orange G. When the triazabutadiene molecule (Compound 4) was treated with the much less acidic acetic acid, the same product was obtained.
as §1, §2

[5] = Acid-triggered diazonium formation; details: methanolic HCl or exposure to acid; trapped with resorcinol or Tyr 6
Excerpt: as §3
To further examine the reactivity of this class of compounds, variants Compound 6d and Compound 6e were synthesized (see FIG. 6G). It was hypothesized that the p-methoxy and p-nitro analogs (Compound 6d and Compound 6e, respectively) would display different reactivity profiles. […] After collecting the precipitate and dissolving it in deuterated methanol, no change was observed from a sample of Compound 6e that had never been exposed to a buffered solution. […]

Relative rate of light-induced degradation [1]: slower than Compound A
pH change on irradiation [2]: slow subtle change to the pH
Compound: Cc1cc(C)c(-n2ccn(CCCS(=O)(=O)[O-])c2=NN=Nc2ccc(C#N)cc2)c(C)c1.[K+] [Compound D]

Effect of substituent on rate of deprotection / hydrolysis [3]: slowed hydrolysis
Compound: CCOC(=O)N(N=Nc1n(-c2c(C)cc(C)cc2C)cc[n+]1-c1c(C)cc(C)cc1C)c1ccc([N+](=O)[O-])cc1.[Cl-] [Compound 11]

Compound consumed after 24 hours ([4]; NMR): 50%
Compound: CC(C)(C)n1ccn(CCCS(=O)(=O)O)c1=NN=Nc1ccccc1 [Compound 6b]

Effect of substituent on rate of deprotection / hydrolysis [3]: slowed hydrolysis
Compound: CCOC(=O)N(N=Nc1n(-c2c(C)cc(C)cc2C)cc[n+]1-c1c(C)cc(C)cc1C)c1ccc(C(F)(F)F)cc1.[Cl-] [Compound 10]

Compound consumed after 24 hours ([4]; NMR): less than 10%
Compound consumed after 6 hours ([4]; non-buffered 90:10 H2O:D2O): > 7%
pH at centre of sigmoidal correlation between decomposition rate and buffer pH ([4]; phosphate/citrate pH 4-7 and phosphate pH 6-8 buffers, 90:10 H2O:D2O): 6
Compound: Cc1cc(C)c(-n2ccn(CCCS(=O)(=O)[O-])c2=NN=Nc2ccccc2)c(C)c1.[K+] [Compound 6c, Potassium 3-(3-mesityl-2-(phenyltriaz-2-en-1-ylidene)-2,3-dihydro-1H-imidazol-1-yl) propane-1-sulfonate]

Effect of substituent on rate of deprotection / hydrolysis [3]: small change in rate
Compound: Cc1cc(C)c(-n2cc[n+](-c3c(C)cc(C)cc3C)c2N=NN(C(=O)OC(C)C)c2ccccc2)c(C)c1.[Cl-] [Compound 13]

Behaviour in buffered solution (solubility) (Solubility observations; pH 5, 6 and 7 phosphate/citrate buffer): rapidly precipitated out of solution
Response to acid (diazonium formation) [5]: immediate color change
Compound: Cc1cc(C)c(-n2ccn(CCCS(=O)(=O)[O-])c2=NN=Nc2ccc([N+](=O)[O-])cc2)c(C)c1.[K+] [Compound 6e]
Stability after 24 hours ([4]; pure D2O, dark, room temperature, NMR): stable to within the detection limit of NMR

Compound: CCOC(=O)N(N=Nc1n(-c2c(C)cc(C)cc2C)cc[n+]1-c1c(C)cc(C)cc1C)c1ccc(C)cc1.[Cl-] [Compound 8]
Effect of substituent on rate of deprotection / hydrolysis [3]: slowed the rate of deprotection moderately

Effect of substituent on rate of deprotection / hydrolysis [3]: small change in rate
Compound: Cc1cc(C)c(-n2cc[n+](-c3c(C)cc(C)cc3C)c2N=NN(C(=O)OCC(C)(C)C)c2ccccc2)c(C)c1.[Cl-] [Compound 12]

Compound: Cn1ccn(C)c1=NN=Nc1ccccc1 [Compound 4]
Water solubility (Solubility observations): not water-soluble
Response to acid (diazonium formation) [5]: rapid color change

Compound: Cn1ccn(CCCS(=O)(=O)O)c1=NN=Nc1ccccc1 [Compound 6a]
Water solubility (Solubility observations): highly water soluble
Compound consumed after 24 hours ([4]; NMR): 50%

Effect of substituent on rate of deprotection / hydrolysis [3]: rate could not be determined
Compound: CCOC(=O)N(N=Nc1n(-c2c(C)cc(C)cc2C)cc[n+]1-c1c(C)cc(C)cc1C)c1ccc(OC)cc1.[Cl-] [Compound 9]

Relative rate of light-induced degradation [1]: slower than Compound A
pH change on irradiation [2]: slow subtle change to the pH
Compound: Cc1cc(C)c(-n2ccn(CCCS(=O)(=O)[O-])c2=NN=Nc2cccc([N+](=O)[O-])c2)c(C)c1.[K+] [Compound C]

Relative rate of light-induced degradation [1]: recalcitrant to degradation
Compound: Cc1cc(C)c(-n2ccn(CCCS(=O)(=O)[O-])c2=NN=Nc2ccc([N+](=O)[O-])cc2)c(C)c1.[K+] [Compound E]

Compound consumed after 24 hours ([4]; NMR): 26%
Compound: COc1ccc(N=NN=c2n(CCCS(=O)(=O)[O-])ccn2-c2c(C)cc(C)cc2C)cc1.[K+] [Compound 6d]
